# Assays:
# [1] = test system: mutant EGFR on the cell surface of PC-9 cells; assay: Cell surface EGFR by flow cytometry; format: cell-based; settings: PC-9, 1 μM, 24 hours
# Experimental: (§1) FIG. 3A-B: MPC-0767 reduces cell surface EGFR expression in H1975 cells (A) and PC-9 cells (B). Cells were treated with MPC-0767 (1 μM) for 24 hours before being harvested and cell expression of EGFR determined by flow cytometry.
# (§2) These findings confirm that MPC-0767 targets and degrades EGFR in lung cancer cell lines.
# [2] = test system: mutant EGFR on the cell surface of H1975 cells; assay: Cell surface EGFR by flow cytometry; format: cell-based; settings: H1975, 1 μM, 24 hours
# Experimental: as §1, §2
# [3] = test system: T-cell populations within MC38 tumors; assay: Effector/regulatory T-cell ratio in MC38 tumors; format: in vivo, mouse; settings: 150 mg/kg QD×7
# Experimental: To test if MPC-0767 may induce an anti-tumor immune response in addition to direct cytotoxic activity, down regulation of PD-Ll and the effector/regulatory T-cell ratio was measured in the same MC38 syngeneic model. On day 21, when the average tumor volume was 372 mm^3 in size, a second group of mice (n=6) was treated with 150 mg/kg MPC-0767 QD×7. One day post the last dose (day 28 post inoculation) tumors were harvested from the vehicle and 150 mg/kg MPC-0767 QD×7 group. Tumor infiltrating leukocytes (CD45^+, CD3^−) within the dissociated tumors were analyzed for PD-L1 expression by flow cytometry.
# [4] = test system: MOLM-13 FLT3-ITD AML cell line; assay: Systemic survival xenograft study, MPC-0767 single agent; settings: vs vehicle
# Experimental: Statistical significance was calculated using Log Rank (Mantel-Cox) test.
# Before tumor cell inoculation, NOD/SCID mice were pre-treated for 2 days with a daily intraperitoneal injection of 100 mg/kg cyclophosphamide to facilitate engraftment of the human MOLM-13 tumor cells. After the injection of cyclophosphamide, the animals were allowed to recover for 24 hours prior to inoculation with human MOLM-13 tumor cells. Each mouse was then inoculated with 1×10^7 MOLM-13 cells in 100 μL PBS via intravenous tail vein injection. Mice were next randomized into 3 groups of 6. […] Viability and body weight loss were monitored daily.
# OCI-AML2 AML cell line = assay: In vitro T-cell-mediated killing assay (active caspase-3); format: cell-based; settings: MPC-0767 2 μM overnight, then pp65 enriched CD8+ T cells 4 hours
# Experimental: The ability of MPC-0767 to increase T cell killing was determined in an in vitro T-cell-mediated killing assay. The OCI-AML2 AML cell line was labeled with the cell staining dye CFSE and treated overnight with MPC-0767 (2 μM) and human cytomegalovirus pp65495-503 peptide. […] After 4 hours of co-culture, cells were harvested, fixed, permeabilized, and stained for the active form of caspase-3 as a direct read-out of apoptotic cell death.
# The CI is a quantitative measure used to determine whether the combined effect of a drug pair is synergistic, additive, or antagonistic. The CI is calculated as CI=(E1+E2)/E12, where E12 is a normalized biological response (e.g., % Caspase-3+ cells) for the combination of Drug A and Drug B, and E1 and E2 are the response measured for each single drug treatment, respectively. CI values less than 1 indicate synergy, with the magnitude of the effect indicated by how much less than 1 the synergy score is. A more detailed mathematical treatment of this relationship is described in Shin et al. 2018.
# [5] = test system: PD-L1 on primary AML patient samples; assay: PD-L1 cell surface expression by flow cytometry; format: cell-based, human; settings: 24 hours
# Experimental: To study whether MPC-0767 blocks IFN-γ-induced PD-L1 expression, six AML patient samples harboring FLT3 WT (n=2) or FLT3-ITD (n=4) were treated with human IFN-γ (50 ng/ml) alone, MPC-0767 (1 μM) alone or the combination of the two for 24 hours. Cells were then harvested to assess PD-L1 cell surface expression by flow cytometry. Cells were also stained with the AML blast markers CD34 or CD45 (to gate on the blast population) and a viability stain to gate on viable cells.
# [6] = test system: EGFR exon20 V769_D770insASV mutant in BaF3 cells; assay: Cell surface EGFR expression in BaF3 cells by flow cytometry; format: cell-based, murine; settings: Mus musculus; BaF3, 24 hours; read-out: EC50 for reduction of cell surface EGFR exon20 V769_D770insASV mutant
# From the text: (§3) To determine whether MPC-0767 can also promote degradation of an EGFR exon20ins mutant, the BaF3 murine cell line was used (Warmuth et al., Curr Opin Oncol., 200719: 55-60). This cell line is dependent upon exogenous IL-3 for survival/growth but upon introduction of an oncogene, the cells no longer depend on exogenous IL-3, and instead survival is driven by the introduced oncogene. Thus, drugs that target the introduced oncogene will reduce BaF3 cell viability providing a mechanism to screen small molecules against relevant oncogenic mutations that arise in the clinic.
# (§4) BaF3 cells harboring EGFR wild type (WT) or EGFR exon20 V769_D770insASV mutant were treated with increasing concentrations of MPC-0767 for 24 hours. After this time, cells were harvested for flow cytometry to assess cell surface EGFR expression (antibody for detection recognized both WT and mutant proteins). […] We further tested whether this finding translated to reduced survival in BaF3 cells expressing the EGFR mutant. Parental BaF3 cells (no mutant) or cells harboring EGFR exon20 V769_D770insASV were treated with increasing concentrations of MPC-0767 for 72 hours after which cell viability was determined using CellTiter-Glo®.
# [7] = test system: EGFR wild type (WT) in BaF3 cells; assay: as above; format: cell-based, murine; settings: Mus musculus; BaF3, 24 hours; read-out: EC50 for reduction of cell surface EGFR WT
# From the text: as §3, §4
# [8] = test system: phospho-ERK (pERK) in MOLM-13 cells; assay: Phospho-ERK level; format: cell-based, human; settings: MPC-0767 800 nM, ATO 625 nM or combination, 24 hours
# From the text: We next explored whether the synergistic activity of MPC-0767 and ATO was due to a more complete abrogation of FLT3-ITD oncogenic signaling. […] After this time cells were harvested for the assessment of cell surface FLT3 expression by flow cytometry. To additionally measure the effects of abrogating FLT3, we assessed phospho-ERK (pERK) and phospho-S6 (pS6), as these are two known downstream effectors.
# ML2 cells = assay: CellTiter-Glo cell viability (single agent and combination)
# HL60 (HL-60) cells = assay: as above; format: cell-based; settings: HL60, 72 h
compound,measurement,setting,value
C[C@H](N)C(=O)O[C@@H](C)C(=O)N1CCC(CCn2c(Sc3cc4c(cc3Br)OCO4)nc3c(N)ncnc32)CC1 [MPC-0767],mutant EGFR on the cell surface,[1],decreased
same,mutant EGFR on the cell surface,[2],decreased
same,CD4:TREG ratio,[3],significant increase
same,CD8:TREG ratio,[3],significant increase
same,increase in median survival,[4]; 75 mg/kg once a day,1.5 days
same,increase in median survival,[4]; 150 mg/kg once a day,10 days
same,Combination Index (CI) for apoptotic (active caspase-3+) cells,OCI-AML2 AML cell line,0.53
same,basal PD-L1 cell surface expression,[5]; MPC-0767 1 μM alone,did not significantly reduce basal PD-L1 cell surface expression
same,IFN-γ-induced PD-L1 cell surface expression,"[5]; MPC-0767 1 μM with IFN-γ 50 ng/ml, P=0.04",significantly reduced the IFN-γ-induced PD-L1 cell surface expression
same,EC50,[6],200 nM
same,EC50,[7],1000 nM
same,pERK level,[8],mildly reduced
same,EC50,"ML2 cells; Homo sapiens, ML-2, 72 h",1030 nM
same,MPC-0767 Sensitivity,"ML2 cells; ML2, 72 h",Resistant (EC50 values above 1 μM considered resistant)
same,MPC-0767 Sensitivity,HL60 (HL-60) cells,Resistant (EC50 values above 1 μM considered resistant)
same,EC50,"HL60 (HL-60) cells; Homo sapiens, HL-60",1960 nM
